According to patent US20110306597A1, “Nicotinamide Derivatives” (priority 2008, published 2011):

Biological target: human recombinant H-PGDS (Homo sapiens, UniProt O60760)
Test: Fluorescence Intensity h-PGDS TBA Enzyme Assay
Format: biochemical
Conditions: 1:175,000 human recombinant H-PGDS, highest inhibitor concentration typically 1 μM
How it was run: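 Readout is PGH2 depletion: after a 42 s reaction with 5.0 μM PGH2 and 2.5 mM glutathione (pH 8.0 Tris, 10 min inhibitor preincubation), Fe(II) converts leftover PGH2 to MDA, which forms a fluorescent TBA complex. IC50s come from 11-point, 3-fold duplicate curves, 4-parameter fit.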

human recombinant H-PGDS, sequence (O60760 whole entry): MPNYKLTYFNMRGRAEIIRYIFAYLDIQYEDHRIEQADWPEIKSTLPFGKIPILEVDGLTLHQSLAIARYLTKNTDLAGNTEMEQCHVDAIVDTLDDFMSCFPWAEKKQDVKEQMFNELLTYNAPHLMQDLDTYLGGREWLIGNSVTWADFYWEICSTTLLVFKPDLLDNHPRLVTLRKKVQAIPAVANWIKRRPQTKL

## O=C(NC1CCN(Cc2ccc(Cl)cc2)C1=O)c1ccc(-c2ccc(F)cc2)nc1 (centres unmarked) [Example 474, N-[1-(4-Chlorobenzyl)-2-oxopyrrolidin-3-yl]-6-(4-fluorophenyl)nicotinamide]
  IC50: 0.734 µM

## NC(CC(=O)NC(=O)c1ccc(-c2cccc(F)c2)nc1)C1CC1 (centres unmarked) [Example 444, N-(3-Amino-3-cyclopropylpropanoyl)-6-(3-fluorophenyl) nicotinamide]
  IC50: 0.0952 µM

## Cc1ccccc1CNC(=O)c1ccc(-c2ccc(F)cc2)nc1 [Example 491, 6-(4-Fluorophenyl)-N-(2-methylbenzyl)nicotinamide]
  IC50: 0.139 µM

## COc1cccc(-c2ccc(C(=O)NCc3ccc(SC)cc3)cn2)c1 [Example 280, 6-(3-Methoxyphenyl)-N-[4-(methylthio)benzyl]nicotinamide]
  IC50: 0.0624 µM

## COc1cccc(-c2ccc(C(=O)NCC(C)(C)CN(C)C)cn2)c1 [Example 342, N-[3-(Dimethylamino)-2,2-dimethylpropyl]-6-(3-methoxyphenyl)nicotinamide]
  IC50: ≥ 1 µM

## Cc1noc([C@H]2CC[C@H](CNC(=O)c3ccc(-c4cccc(F)c4)nc3)CC2)n1 [Example 11, 6-(3-Fluorophenyl)-N-{[trans-4-(3-methyl-1,2,4-oxadiazol-5-yl)cyclohexyl]methyl} nicotinamide]
  IC50: 0.0189 µM

## COc1cccc(-c2ccc(C(=O)NC(=O)CC(N)c3ccc(OC)c(OC)c3)cn2)c1 (centres unmarked) [Example 277, N-[3-Amino-3-(3,4-dimethoxyphenyl)propanoyl]-6-(3-methoxyphenyl) nicotinamide]
  IC50: 0.274 µM

## O=C(NCC1COc2ccccc2C1)c1ccc(-c2cc(F)cc(F)c2)nc1 (centres unmarked) [Example 542, 6-(3,5-Difluorophenyl)-N-(3,4-dihydro-2H-chromen-3-ylmethyl)nicotinamide]
  IC50: 0.0391 µM

## CS(=O)(=O)c1cccc(CNC(=O)c2ccc(-c3cccc(F)c3)nc2)c1 [Example 189, 6-(3-Fluorophenyl)-N-[3-(methylsulfonyl)benzyl] nicotinamide]
  IC50: 0.00674 µM

## Cc1cccc(NC(=O)c2ccc(-c3ccccc3)nc2)c1C [Example 527, N-(2,3-Dimethylphenyl)-6-phenylnicotinamide]
  IC50: 0.0103 µM

## O=C(NCc1ccccc1)c1ccc(-c2ccccc2)nc1 [Example 347, N-Benzyl-6-phenylnicotinamide]
  IC50: 0.0043 µM

## COC(=O)c1ccc(CNC(=O)c2ccc(-c3cccc(C)c3)nc2)cc1 [Example 455, Methyl 4-[({[6-(3-methylphenyl)pyridin-3-yl]carbonyl}amino)methyl] benzoate]
  IC50: 0.0951 µM

## Cc1nnc(CNC(=O)c2ccc(-c3cccc(F)c3)nc2)o1 [Example 96, 6-(3-Fluorophenyl)-N-[(5-methyl-1,3,4-oxadiazol-2-yl)methyl]nicotinamide]
  IC50: 0.175 µM

## COc1ccc(C(CNC(=O)c2ccc(-c3cccc(F)c3)nc2)N2CCOCC2)cc1 (centres unmarked) [Example 190, 6-(3-Fluorophenyl)-N-[2-(4-methoxyphenyl)-2-morpholin-4-ylethyl]nicotinamide]
  IC50: 1.33 µM

## O=C(NCCc1ccncc1)c1ccc(-c2ccc(F)cc2)nc1 [Example 264, 6-(4-Fluorophenyl)-N-(2-pyridin-4-ylethyl)nicotinamide]
  IC50: 0.238 µM

## CS(=O)(=O)Cc1noc(CNC(=O)c2ccc(-c3cccc(F)c3)nc2)n1 [Example 167, 6-(3-Fluorophenyl)-N-({3-[(methylsulfonyl)methyl]-1,2,4-oxadiazol-5-yl}methyl)nicotinamide]
  IC50: 0.285 µM

## COc1cccc(-c2ccc(C(=O)NCCN3CCN(Cc4ccccc4)CC3)cn2)c1 [Example 295, N-[2-(4-Benzylpiperazin-1-yl)ethyl]-6-(3-methoxyphenyl)nicotinamide]
  IC50: 0.377 µM

## CN(C)[C@@H]1COC[C@H]1NC(=O)c1ccc(-c2cccc(F)c2)nc1 [Example 68, N-[(3S,4S)-4-(Dimethylamino)tetrahydro-furan-3-yl]-6-(3-fluorophenyl)nicotinamide]
  IC50: 0.0758 µM

## Cc1ccn(CCNC(=O)c2ccc(-c3cccc(F)c3)nc2)n1 [Example 92, 6-(3-Fluorophenyl)-N-[2-(3-methyl-1H-pyrazol-1-yl)ethyl]nicotinamide]
  IC50: 0.0187 µM

## CCOC(=O)CC(NC(=O)c1ccc(-c2ccccc2)nc1)c1ccccc1 (centres unmarked) [Example 394, Ethyl 3-phenyl-3-{[(6-phenylpyridin-3-yl)carbonyl]amino}propanoate]
  IC50: 0.0244 µM

## O=C(NCCN1CCNC1=O)c1ccc(-c2ccccc2)nc1 [Example 375, N-[2-(2-Oxoimidazolidin-1-yl)ethyl]-6-phenylnicotinamide]
  IC50: 0.0255 µM

## CC(C)CNC(=O)c1ccc(-c2cccc(F)c2)nc1 [Example 170, 6-(3-Fluorophenyl)-N-isobutylnicotinamide]
  IC50: 0.0261 µM

## O=C(NCCc1nccs1)c1ccc(-c2cccc(F)c2)nc1 [Example 93, 6-(3-Fluorophenyl)-N-[2-(1,3-thiazol-2-yl)ethyl]nicotinamide]
  IC50: 0.0125 µM

## O=C(NCC1CCCN(c2nc(C(F)F)cc(=O)[nH]2)C1)c1ccc(-c2cccc(F)c2)nc1 (centres unmarked) [Example 107, N-({1-[4-(Difluoromethyl)-6-oxo-1,6-dihydropyrimidin-2-yl]piperidin-3-yl}methyl)-6-(3-fluorophenyl)nicotinamide]
  IC50: 0.0154 µM

## O=C(NCc1ccccc1F)c1ccc(-c2ccccc2)nc1 [Example 380, N-(2-Fluorobenzyl)-6-phenylnicotinamide]
  IC50: 0.0021 µM

## CC(O)CNC(=O)c1ccc(-c2cccc(F)c2)nc1 (centres unmarked) [Example 198, 6-(3-Fluorophenyl)-N-(2-hydroxypropyl)nicotinamide]
  IC50: 0.0387 µM

## O=C(NCCN1CCCCC1=O)c1ccc(-c2cccc(F)c2)nc1 [Example 164, 6-(3-Fluorophenyl)-N-[2-(2-oxopiperidin-1-yl)ethyl]nicotinamide]
  IC50: 0.00913 µM

## CCOC(=O)C(CNC(=O)c1ccc(-c2ccccc2)nc1)C1CCCC1 (centres unmarked) [Example 393, Ethyl 2-cyclopentyl-3-{[(6-phenylpyridin-3-yl)carbonyl]amino}propanoate]
  IC50: 0.00196 µM

## O=C(NCCCc1ccccn1)c1ccc(-c2cccc(F)c2)nc1 [Example 118, 6-(3-Fluorophenyl)-N-(3-pyridin-2-ylpropyl)nicotinamide]
  IC50: 0.0053 µM

## O=C(NCC1CCCCO1)c1ccc(-c2ccc(F)cc2)nc1 (centres unmarked) [Example 498, 6-(4-Fluorophenyl)-N-(tetrahydro-2H-pyran-2-ylmethyl)nicotinamide]
  IC50: ≥ 1 µM

## CC(C)NC(=O)c1ccc(-c2ccc(F)cc2)nc1 [Example 503, 6-(4-Fluorophenyl)-N-isopropylnicotinamide]
  IC50: ≥ 1 µM

## O=C(NC1CCN(Cc2ccc(Cl)c(Cl)c2)C1=O)c1ccc(-c2ccc(F)cc2)nc1 (centres unmarked) [Example 479, N-[1-(3,4-Dichlorobenzyl)-2-oxopyrrolidin-3-yl]-6-(4-fluorophenyl)nicotinamide]
  IC50: 0.896 µM

## O=C(NCCCNc1ccccn1)c1ccc(-c2cccc(F)c2)nc1 [Example 197, 6-(3-Fluorophenyl)-N-[3-(pyridin-2-ylamino)propyl]nicotinamide]
  IC50: 0.034 µM

## O=C(NC1CCN(Cc2ccc(Cl)cc2)C1=O)c1ccc(-c2cccc(F)c2)nc1 (centres unmarked) [Example 431, N-[1-(4-Chlorobenzyl)-2-oxopyrrolidin-3-yl]-6-(3-fluorophenyl)nicotinamide]
  IC50: 0.059 µM

## Cc1cccc(-c2ccc(C(=O)NCc3ccc(F)cc3)cn2)c1 [Example 314, N-(4-Fluorobenzyl)-6-(3-methylphenyl)nicotinamide]
  IC50: 0.0795 µM

## O=C(N[C@@H]1C[C@H]2CC[C@@H](C1)N2C(=O)N1CCC(O)CC1)c1ccc(-c2cccc(F)c2)nc1 [Example 596, 6-(3-Fluorophenyl)-N-(3-exo)-8-[(4-hydroxypiperidin-1-ylcarbonyl]-8-azabicyclo[3.2.1]octyl-3-yl}nicotinamide]
  IC50: 0.011 µM

## CC(C)[C@H](N)C(=O)NC(=O)c1ccc(-c2ccc(F)cc2)nc1 [Example 501, 6-(4-Fluorophenyl)-N-L-valylnicotinamide]
  IC50: ≥ 1 µM

## Cc1cccc(-c2ccc(C(=O)NCC(C)O)cn2)c1 (centres unmarked) [Example 234, N-(2-Hydroxypropyl)-6-(3-methylphenyl)nicotinamide]
  IC50: 0.0662 µM

## O=C(Nc1ccncc1)c1ccc(-c2cccc(F)c2)nc1 [Example 177, 6-(3-Fluorophenyl)-N-pyridin-4-ylnicotinamide]
  IC50: 0.00819 µM

## NC(CC(=O)NC(=O)c1ccc(-c2ccccc2)nc1)C1CC1 (centres unmarked) [Example 364, N-(3-Amino-3-cyclopropylpropanoyl)-6-phenylnicotinamide]
  IC50: 0.0393 µM

## Cc1cc(C)cc(-c2nnc(CCNC(=O)c3ccc(-c4cccc(F)c4)nc3)o2)c1 [Example 213, N-{2-[5-(3,5-Dimethylphenyl)-1,3,4-oxadiazol-2-yl]ethyl}-6-(3-fluorophenyl)nicotinamide]
  IC50: 0.0283 µM

## O=C(NCc1ccc(-n2cncn2)cc1)c1ccc(-c2ccc(F)cc2)nc1 [Example 329, 6-(4-Fluorophenyl)-N-[4-(1H-1,2,4-triazol-1-yl)benzyl]nicotinamide]
  IC50: 0.552 µM

## COc1cccc(-c2ccc(C(=O)NC3CCN(Cc4ccc(C)cc4)C3=O)cn2)c1 (centres unmarked) [Example 274, 6-(3-Methoxyphenyl)-N-[1-(4-methylbenzyl)-2-oxopyrrolidin-3-yl]nicotinamide]
  IC50: 0.106 µM

## Cc1cccc(-c2ccc(C(=O)NC3CCOC3=O)cn2)c1 (centres unmarked) [Example 250, 6-(3-Methylphenyl)-N-(2-oxotetrahydrofuran-3-yl)nicotinamide]
  IC50: 0.0745 µM

## COC(=O)CCNC(=O)c1ccc(-c2cccc(F)c2)nc1 [Example 187, Methyl N-{[6-(3-fluorophenyl)pyridin-3-yl]carbonyl}-beta-alaninate]
  IC50: 0.0145 µM

## O=C(NCCNc1ncccn1)c1ccc(-c2cccc(F)c2)nc1 [Example 64, 6-(3-Fluorophenyl)-N-[2-(pyrimidin-2-ylamino)ethyl]nicotinamide]
  IC50: 0.0129 µM

## COc1cccc(-c2ccc(C(=O)NCc3ccco3)cn2)c1 [Example 288, N-(2-Furylmethyl)-6-(3-methoxyphenyl)nicotinamide]
  IC50: 0.333 µM
